Source: patent US12692261B2, “Substituted heterocyclic compounds and therapeutic uses thereof” (Bayer Aktiengesellschaft, priority 2020, dated 2026)

Key:
full-length human CSNK1D = target: T1, full-length human CSNK1D (Homo sapiens, UniProt P48730); assay: CSNK1D Assay (ADP-Glo, 1 μM ATP); format: biochemical; conditions: Table 3, read-out: CSNK1D IC50 [mol/l] (median)
T1 construct: N-terminal Glutathion-S-Transferase (GST) and full-length human CSNK1D; purchased Life Technologies PV3665; host or cells: baculovirus infected insect cells
T1 sequence (P48730 whole entry): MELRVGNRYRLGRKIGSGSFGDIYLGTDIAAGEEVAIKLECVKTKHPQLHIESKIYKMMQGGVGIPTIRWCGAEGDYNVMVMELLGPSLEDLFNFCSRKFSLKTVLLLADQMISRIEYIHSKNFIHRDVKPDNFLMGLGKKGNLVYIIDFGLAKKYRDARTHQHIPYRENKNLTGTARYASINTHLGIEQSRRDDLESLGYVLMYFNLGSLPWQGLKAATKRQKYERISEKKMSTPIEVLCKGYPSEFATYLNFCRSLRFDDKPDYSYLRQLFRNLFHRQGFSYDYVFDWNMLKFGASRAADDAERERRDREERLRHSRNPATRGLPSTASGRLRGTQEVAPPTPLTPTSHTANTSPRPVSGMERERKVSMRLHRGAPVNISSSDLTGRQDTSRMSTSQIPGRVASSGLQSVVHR
Summary of the method: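 ADP-Glo luminescence reports ADP generated by GST-fused full-length human CSNK1D (insect-cell expressed, about 0.5 ng/μL) acting on a biotinylated peptide at 1 μM ATP. Test compounds were pre-bound to enzyme 15 min at 22° C in 50 mM HEPES pH 7.5.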

[1] = target: T2, full-length human CSNK1A1 (Homo sapiens, UniProt P48729); assay: CSNK1A1 Assay 2 (ADP-Glo, 1 μM ATP, substrate biotin-Ahx-KRRRAL-pS-VASLPGL); format: biochemical; conditions: Table 3, read-out: CSNK1A1 Assay 2 IC50 [mol/l] (median)
T2 construct: N-terminal Glutathion-S-Transferase (GST) and full-length human CSNK1A1; purchased Life Technologies PV4174; host or cells: baculovirus infected insect cells
T2 sequence (P48729 whole entry): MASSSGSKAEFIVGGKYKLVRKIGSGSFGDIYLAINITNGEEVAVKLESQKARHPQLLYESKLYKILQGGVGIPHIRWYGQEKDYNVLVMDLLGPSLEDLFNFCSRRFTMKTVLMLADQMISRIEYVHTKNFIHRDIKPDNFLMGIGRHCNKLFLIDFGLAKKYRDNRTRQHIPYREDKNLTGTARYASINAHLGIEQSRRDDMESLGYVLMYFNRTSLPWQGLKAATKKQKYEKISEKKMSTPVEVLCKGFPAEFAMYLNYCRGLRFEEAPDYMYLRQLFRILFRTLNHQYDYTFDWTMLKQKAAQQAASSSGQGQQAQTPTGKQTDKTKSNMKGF
Summary of the method: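 Activity read as ADP generated (ADP-Glo luciferase luminescence, 1 h detection steps at 22 °C). Enzyme was insect-cell-expressed GST–full-length human CSNK1A1, compound-preincubated 15 min before reaction with phosphopeptide substrate and 1 μM ATP in 50 mM HEPES pH 7.5, 10 mM MgCl2.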

Row | SMILES | IC50 (full-length human CSNK1D) | IC50 [1]
1 | O=C(Nc1cc(-c2[nH]c3c(OC4CC4)cc(F)nc3c2-c2ccccn2)ccn1)C(CC(F)F)c1ccc(F)cc1 (stereo not shown) [Example 45] | 40.4 nM | 22.3 nM
2 | COc1cnc2c(-c3ccccn3)c(-c3ccnc(NC(=O)C(CC(F)F)c4ccc(F)cc4)c3)[nH]c2n1 (stereo not shown) [Example 101, 4,4-difluoro-2-(4-fluorophenyl)-N-{4-[3-methoxy-7-(pyridin-2-yl)-5H-pyrrolo[2,3-b]pyrazin-6-yl]pyridin-2-yl}butanamide] | 9.17 nM | 4.82 nM
3 | O=C(Nc1cc(-c2[nH]c3cccnc3c2-c2ccccn2)ccn1)C(CCO)c1ccc(F)cc1 (stereo not shown) [Example 104, 2-(4-fluorophenyl)-4-hydroxy-N-(4-(3-(pyridin-2-yl)-1H-pyrrolo[3,2-b]pyridin-2-yl)pyridin-2-yl)-butanamide] | 16.3 nM | 6.29 nM
4 | O=C(Nc1cc(-c2[nH]c3nc(OC(F)F)cnc3c2-c2ccccn2)ccn1)C(CC(F)F)c1ccc(F)cc1 (stereo not shown) [Example 105, N-{4-[3-(difluoromethoxy)-7-(pyridin-2-yl)-5H-pyrrolo[2,3-b]pyrazin-6-yl]pyridin-2-yl}-4,4-difluoro-2-(4-fluorophenyl)butanamide] | 12.3 nM | 10.9 nM
5 | COc1ncnc2c(-c3ccccn3)c(-c3ccnc(NC(=O)C(CC(F)F)c4ccc(F)cc4)c3)[nH]c12 (stereo not shown) [Example 113, 4,4-difluoro-2-(4-fluorophenyl)-N-{4-[4-methoxy-7-(pyridin-2-yl)-5H-pyrrolo[3,2-d]pyrimidin-6-yl]pyridin-2-yl}butanamide] | 9.2 nM | 3.74 nM
